Patent US8287923B2, “Compositions and methods for treating immune disorders” (priority 2005, dated 2012)

Test system: normal human epidermal keratinocytes (NHEK)
Test: Affymetrix gene array analysis, autoantigen gene expression
Type: cell-based
Conditions: 100 μM
Protocol: The gene array experiment was performed at the Core Facility of Genomics of the Medical College of Georgia, according to the instructions of the manufacturer (Affymetrix, Santa Clara, Calif.). Briefly, NHEK and OSC2 cells treated with 100 μM EGCG for different time period were extracted for total RNA, the RNA was processed for probes and hybridized with a cDNA microarray (HuG133A, Affymetrix) which represents 22,283 human series. DNA chips were read with a Hewlett-Packard GeneArray Scanner at a resolution of […] and were analyzed with the GeneSpring software (Silicon Genetics, Redwood City, Calif.). Details of this analysis will be published elsewhere (Hsu et al., manuscript in preparation).
Gene assays provide a valuable tool for studying the broad response of cells to agents, and we have used this approach to compare the differential effects of GTPP on gene expression in NHEK and human oral squamous carcinoma cells (Hsu, et al, manuscript in preparation). […] See also Hsu, S. et al. (2005) JPET 315:805-811, which is incorporated by reference in its entirety.

`O=C(O[C@@H]1Cc2c(O)cc(O)cc2O[C@@H]1c1cc(O)c(O)c(O)c1)c1cc(O)c(O)c(O)c1` [EGCG, (−)-epigallocatechin-3-gallate] was tested, and the “60 kDa, SS-A/Ro (212852_s_at) expression, normalized” value (6 h) was 0.85, the “Ku autoantigen, 80 kDa (208642_s_at) expression, normalized” value (6 h) was 0.96 and the “Ku autoantigen, 80 kDa (208643_s_at) expression, normalized” value (6 h) was 0.98. For the same compound, the “Nuclear antigen SP100 (202863_at) expression, normalized” value (6 h) was 0.59, the “Nuclear antigen SP100 (202864_s_at) expression, normalized” value (6 h) was 0.64 and the “Nuclear antigen SP10075 kDa (213226_at) expression, normalized” value (6 h) was 0.43. The “RNA polymerase 1 (202692_s-at) expression, normalized” value (6 h) was 0.50, the “SS-B/La (201138_s_at) expression, normalized” value (6 h) was 0.57 and the “SS-B/La (201139_s_at) expression, normalized” value (6 h) was 0.43. For the same compound, the “centromere protein C1 (20473_at) expression, normalized” value (6 h) was 0.87, the “coilin (203653_s_at) expression, normalized” value (6 h) was 0.60 and the “coilin (203654_s_at) expression, normalized” value (6 h) was 0.62. For the same compound, the “fodrin-α (208611_s_at) expression, normalized” value (6 h) was 0.56, the “fodrin-α (215235_s_at) expression, normalized” value (6 h) was 0.75 and the “golgin-67 (208797_s_at) expression, normalized” value (6 h) was 0.92. The “golgin-67 (208798_x_at) expression, normalized” value (6 h) was 0.32, the “golgin-67 (210425_x_at) expression, normalized” value (6 h) was 0.19 and the “golgin-67 (213650_at) expression, normalized” value (6 h) was 0.69. For the same compound, the “scleroderma autoantigen 1, 75 kDa (213226_at) expression, normalized” value (6 h) was 0.43, the “spectrin-β non-erythrocyctic 1 (212071_s_at) expression, normalized” value (6 h) was 0.95 and the “thyroid autoantigen 70 kDa (Ku antigen) (200792_at) expression, normalized” value (6 h) was 1.13. For the same compound, the “ADPRT [poly(ADP)-ribose polymerase] expression” value (6 h, vs time zero) was 0.992 fold, the ANAP12 expression (6 h, vs time zero) was 0.4 fold and the ANXA11 expression (6 h, vs time zero) was 2.141 fold. For the same compound, the CALR expression (6 h, vs time zero) was 1.482 fold, the CBARA1 expression (6 h, vs time zero) was 0.498 fold and the CENPA expression (6 h, vs time zero) was 0.672 fold. It also gave a CENPB expression (6 h, vs time zero) of 0.498 fold, a CENPC1 expression (6 h, vs time zero) of 0.869 fold and a CHD4 expression (6 h, vs time zero) of 0.916 fold. For the same compound, the COL17A1 expression (6 h, vs time zero) was 1.043 fold, the CTDSP1 expression (6 h, vs time zero) was 1.25 fold and the CTDSP2 expression (6 h, vs time zero) was 0.92 fold. The CTDSPL expression (6 h, vs time zero) was 2.42 fold, the DLAT expression (6 h, vs time zero) was 1.031 fold and the EPPK1 expression (6 h, vs time zero) was 1.318 fold. The FBL expression (6 h, vs time zero) was 1.09 fold, the FLJ31657 expression (6 h, vs time zero) was 0.435 fold and the “FLNB (Filamin B, β) expression” value (6 h, vs time zero) was 0.751 fold. For the same compound, the “FLNB (Filamin B, γ) expression” value (6 h, vs time zero) was 0.875 fold, the “G22P1 (Thyroid autoantigen, 70 kDa, Ku antigen) expression” value (6 h, vs time zero) was 1.127 fold and the GMEB2 expression (6 h, vs time zero) was 0.626 fold. The GOLGA1 expression (6 h, vs time zero) was 0.68 fold, the GOLGA2 expression (6 h, vs time zero) was 0.769 fold and the GOLGA3 expression (6 h, vs time zero) was 0.547 fold. The GOLGA4 expression (6 h, vs time zero) was 0.353 fold, the GOLGA5 expression (6 h, vs time zero) was 0.731 fold and the GOLGB1 expression (6 h, vs time zero) was 0.56 fold. The HARS expression (6 h, vs time zero) was 0.88 fold, the HARSL expression (6 h, vs time zero) was 0.88 fold and the HSA6591 expression (6 h, vs time zero) was 0.532 fold. For the same compound, the HUMAUANTIG expression (6 h, vs time zero) was 0.444 fold, the IMP-2 expression (6 h, vs time zero) was 0.635 fold and the LAD1 expression (6 h, vs time zero) was 0.954 fold. For the same compound, the “LMO4 expression (repeat 1)” value (6 h, vs time zero) was 0.708 fold, the “LMO4 expression (repeat 2)” value (6 h, vs time zero) was 1.133 fold and the “MGC5560 expression (repeat 1)” value (6 h, vs time zero) was 1.646 fold. For the same compound, the “MGC5560 expression (repeat 2)” value (6 h, vs time zero) was 2.605 fold, the “NS (Nucleostemin) expression” value (6 h, vs time zero) was 0.519 fold and the PDHB expression (6 h, vs time zero) was 0.745 fold. For the same compound, the PDX1 expression (6 h, vs time zero) was 0.646 fold, the “PMSCL1, 75 kDa expression” value (6 h, vs time zero) was 0.431 fold and the PMSCL2 expression (6 h, vs time zero) was 1.058 fold. The POLR1B expression (6 h, vs time zero) was 0.98 fold, the POLR1D expression (6 h, vs time zero) was 1.04 fold and the “POLR2A expression (repeat 1)” value (6 h, vs time zero) was 1.80 fold. For the same compound, the “POLR2A expression (repeat 2)” value (6 h, vs time zero) was 0.44 fold, the POLR2B expression (6 h, vs time zero) was 0.59 fold and the POLR2C expression (6 h, vs time zero) was 1.53 fold. For the same compound, the POLR2D expression (6 h, vs time zero) was 1.04 fold, the POLR2E expression (6 h, vs time zero) was 0.87 fold and the POLR2F expression (6 h, vs time zero) was 1.17 fold. For the same compound, the POLR2G expression (6 h, vs time zero) was 0.74 fold, the POLR2H expression (6 h, vs time zero) was 1.02 fold and the POLR3C expression (6 h, vs time zero) was 0.45 fold. The POLR3G expression (6 h, vs time zero) was 1.05 fold, the PSME3 expression (6 h, vs time zero) was 1.128 fold and the RALY expression (6 h, vs time zero) was 1.496 fold. The SART1 expression (6 h, vs time zero) was 1.462 fold, the SLC25A16 expression (6 h, vs time zero) was 1.099 fold and the SNRP70 expression (6 h, vs time zero) was 2.28 fold. The SNRPA expression (6 h, vs time zero) was 1.35 fold, the SNRPB2 expression (6 h, vs time zero) was 0.56 fold and the “SNRPB expression (repeat 1)” value (6 h, vs time zero) was 0.76 fold. For the same compound, the “SNRPB expression (repeat 2)” value (6 h, vs time zero) was 0.67 fold, the SNRPC expression (6 h, vs time zero) was 1.28 fold and the “SNRPD1 expression (repeat 1)” value (6 h, vs time zero) was 0.658 fold. For the same compound, the “SNRPD1 expression (repeat 2)” value (6 h, vs time zero) was 0.612 fold, the SOX13 expression (6 h, vs time zero) was 1.24 fold and the “SP100 expression (repeat 1)” value (6 h, vs time zero) was 0.59 fold. The “SP100 expression (repeat 2)” value (6 h, vs time zero) was 0.686 fold, the “SP110 expression (repeat 1)” value (6 h, vs time zero) was 1.205 fold and the “SP110 expression (repeat 2)” value (6 h, vs time zero) was 0.997 fold. For the same compound, the “SP110 expression (repeat 3)” value (6 h, vs time zero) was 0.7 fold, the “SPTAN1 (α-fodrin) expression (repeat 1)” value (6 h, vs time zero) was 0.56 fold and the “SPTAN1 (α-fodrin) expression (repeat 2)” value (6 h, vs time zero) was 0.75 fold. For the same compound, the SPTBN expression (6 h, vs time zero) was 0.95 fold, the “SSA2 (autoantigen SS-A/Ro) expression (repeat 2)” value (6 h, vs time zero) was 0.687 fold and the “SSA2 expression (repeat 1)” value (6 h, vs time zero) was 0.739 fold. The “SSA2 expression (repeat 3)” value (6 h, vs time zero) was 0.571 fold, the “SSA2 expression (repeat 4)” value (6 h, vs time zero) was 0.85 fold and the “SSB (autoantigen La) expression (repeat 1)” value (6 h, vs time zero) was 0.57 fold. For the same compound, the “SSB (autoantigen La) expression (repeat 2)” value (6 h, vs time zero) was 0.427 fold, the SSNA1 expression (6 h, vs time zero) was 1.608 fold and the SSSCA1 expression (6 h, vs time zero) was 1.005 fold. For the same compound, the STRN3 expression (6 h, vs time zero) was 0.528 fold, the “TOP1 expression (repeat 1)” value (6 h, vs time zero) was 0.84 fold and the “TOP1 expression (repeat 2)” value (6 h, vs time zero) was 0.33 fold. The UBTF expression (6 h, vs time zero) was 0.501 fold, the “XRCC5 (Ku autoantigen, 80 kDa) expression (repeat 1)” value (6 h, vs time zero) was 0.977 fold and the “XRCC5 (Ku autoantigen, 80 kDa) expression (repeat 2)” value (6 h, vs time zero) was 0.958 fold. The dJ963E22.1 expression (6 h, vs time zero) was 0.723 fold, the α-NAC expression (6 h, vs time zero) was 0.0443 fold and the “60 kDa, SS-A/Ro (210438_x_at) expression, normalized” value (24 h) was 0.88. For the same compound, the “60 kDa, SS-A/Ro (212852_s_at) expression, normalized” value (24 h) was 0.94.
